In patent US20240228555A9, “ANTIMICROBIAL PEPTIDOMIMETICS” (Basilea Pharmaceutica International AG, Allschwil, priority 2020, published 2024):
Where a SMILES comes first, the peptide text is derived from it. Bridges are numbered along the chain shown (N, C = ends). [ ]: non-standard residue; d: D form. Dab(iPr) = CC(C)NCC[C@H](N)C(=O)O; Hyp = O=C(O)[C@@H]1C[C@@H](O)CN1; Pen = CC(C)(S)[C@H](N)C(=O)O; dDab = NCC[C@@H](N)C(=O)O

Assays:
[1] = test system: human red blood cells (hRBC); format: cell-based; settings: red cells of human, 1 h, 0.2 g/L
How it was run: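 Percent lysis was derived from supernatant absorbance at 540 nm relative to full lysis by 2.5% Triton X-100 (PBS defines 0%). Compounds, 200 μg/mL, were exposed for 1 h at 37° C to a 20% (v/v) suspension of washed human red cells.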

[2] = test system: Escherichia coli MCR-1 Af 45; settings: Mueller-Hinton broth II, no visible growth after 18-20 hours at 35° C.
How it was run: (§1)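 Standardized inocula (0.5 McFarland in saline, then diluted in MHII broth to approximately 5×10^5 CFU/mL) were exposed to two-fold dilution series of each peptide in the presence of polysorbate 80 (0.002% final).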

[3] = test system: Escherichia coli ATCC 25922; settings: ATCC 25922
How it was run: as §1

[4] = test system: Klebsiella pneumoniae SSI3010; settings: SSI3010
How it was run: as §1

SMILES | Hemolysis at 0.2 g/L [1] [%] | Escherichia coli MCR-1 Af 45 MIC [2] [µg/mL] | Escherichia coli ATCC 25922 MIC [3] [µg/mL] | Klebsiella pneumoniae SSI3010 MIC [4] [µg/mL]
CC[C@H](C)[C@H](NC(=O)[C@@H]1C[C@@H](O)CN1C(=O)[C@@H](N)C(C)C)C(=O)N[C@@H](CCCN)C(=O)N[C@@H](Cc1ccc(O)cc1)C(=O)N[C@@H]1C(=O)N[C@@H](CC(N)=O)C(=O)N[C@@H](CCCNC(=N)N)C(=O)N[C@@H](CCN)C(=O)N[C@@H]([C@@H](C)O)C(=O)N[C@H](CCN)C(=O)N[C@@H](CCCCN)C(=O)N[C@H](C(=O)N[C@@H](CCN)C(=O)N[C@H](C(=O)N[C@@H](Cc2ccc(O)cc2)C(=O)O)[C@@H](C)O)CSSC1(C)C [Example 122, Val-Hyp-Ile-Orn-Tyr-Pen-Asn-Arg-Dab-Thr-^DDab-Lys-Cys-Dab-Thr-Tyr] (HELM PEPTIDE1{V.[Hyp].I.[Orn].Y.[Pen].N.R.[Dab].T.[NCC[C@@H](N[*:1])C(=O)[*:2]].K.C.[Dab].T.Y}$PEPTIDE1,PEPTIDE1,6:R3-13:R3$$$V2.0) | <1 | 0.125 | 0.25 | 0.5
CC[C@H](C)[C@H](NC(=O)[C@@H]1CC(F)(F)CN1C(=O)[C@@H](N)C(C)C)C(=O)N[C@H](C(=O)N[C@@H](Cc1ccc(O)cc1)C(=O)N[C@@H]1C(=O)N[C@@H](CC(N)=O)C(=O)N[C@@H](CCCNC(=N)N)C(=O)N[C@@H](CCN)C(=O)N[C@@H]([C@@H](C)O)C(=O)N[C@H](CCN)C(=O)N[C@@H](CCCCN)C(=O)N[C@H](C(=O)N[C@@H](CCN)C(=O)N[C@@H](CCCNC(=N)N)C(=O)N[C@@H](Cc2ccc(O)cc2)C(=O)O)CSSC1(C)C)[C@@H](C)O [Example 127, Val-Pro(4,4F2)-Ile-Thr-Tyr-Pen-Asn-Arg-Dab-Thr-^DDab-Lys-Cys-Dab-Arg-Tyr] (HELM PEPTIDE1{V.[O=C([C@@H]1CC(F)(F)CN1[*:1])[*:2]].I.T.Y.[Pen].N.R.[Dab].T.[NCC[C@@H](N[*:1])C(=O)[*:2]].K.C.[Dab].R.Y}$PEPTIDE1,PEPTIDE1,6:R3-13:R3$$$V2.0) | <1 | 0.125 | 0.25 | 0.5
CC[C@H](C)[C@@H]1NC(=O)[C@@H](NC(=O)[C@H](Cc2ccc(O)cc2)NC(=O)[C@@H](NC(=O)[C@@H](NC(=O)[C@@H]2C[C@@H](O)CN2C(=O)[C@@H](N)C(C)C)[C@@H](C)CC)[C@@H](C)O)C(C)(C)SSC[C@@H](C(=O)N[C@@H](CO)C(=O)N[C@@H](CCCNC(=N)N)C(=O)N[C@@H](Cc2ccc(O)cc2)C(=O)O)NC(=O)[C@H](CCCCN)NC(=O)[C@@H](CCN)NC(=O)[C@H]([C@@H](C)O)NC(=O)[C@H](CCN)NC(=O)[C@H](CCCNC(=N)N)NC1=O [Example 104, Val-Hyp-Ile-Thr-Tyr-Pen-Ile-Arg-Dab-Thr-^DDab-Lys-Cys-Ser-Arg-Tyr] (HELM PEPTIDE1{V.[Hyp].I.T.Y.[Pen].I.R.[Dab].T.[NCC[C@@H](N[*:1])C(=O)[*:2]].K.C.S.R.Y}$PEPTIDE1,PEPTIDE1,6:R3-13:R3$$$V2.0) | <1 | 0.125 | 0.125 | 0.25
CC[C@H](C)[C@H](NC(=O)[C@@H](NC(=O)[C@@H]1C[C@@H](O)CN1C(=O)[C@@H](N)C(C)C)[C@@H](C)CC)C(=O)N[C@@H](Cc1ccc(O)cc1)C(=O)N[C@@H]1C(=O)N[C@@H](CC(N)=O)C(=O)N[C@@H](CCCNC(=N)N)C(=O)N[C@@H](CCN)C(=O)N[C@@H]([C@@H](C)O)C(=O)N[C@H](CCN)C(=O)N[C@@H](CCCCN)C(=O)N[C@H](C(=O)N[C@@H](CCN)C(=O)N[C@@H](CCN)C(=O)N[C@@H](Cc2ccc(O)cc2)C(=O)O)CSSC1(C)C [Example 74, Val-Hyp-Ile-Ile-Tyr-Pen-Asn-Arg-Dab-Thr-^DDab-Lys-Cys-Dab-Dab-Tyr] (HELM PEPTIDE1{V.[Hyp].I.I.Y.[Pen].N.R.[Dab].T.[NCC[C@@H](N[*:1])C(=O)[*:2]].K.C.[Dab].[Dab].Y}$PEPTIDE1,PEPTIDE1,6:R3-13:R3$$$V2.0) | <1 | 0.0625 | 0.125 | 0.25
CC[C@H](C)[C@H](NC(=O)[C@@H](NC(=O)[C@@H]1C[C@@H](O)CN1C(=O)[C@@H](N)C(C)C)[C@@H](C)CC)C(=O)N[C@@H](Cc1ccc(O)cc1)C(=O)N[C@@H]1C(=O)N[C@@H](CC(N)=O)C(=O)N[C@@H](CCCNC(=N)N)C(=O)N[C@@H](CCN)C(=O)N[C@@H]([C@@H](C)O)C(=O)N[C@H](CCN)C(=O)N[C@@H]([C@@H](C)CC)C(=O)N[C@H](C(=O)N[C@@H](CCN)C(=O)N[C@@H](CCN)C(=O)N[C@@H](Cc2ccc(O)cc2)C(=O)O)CSSC1(C)C [Example 83, Val-Hyp-Ile-Ile-Tyr-Pen-Asn-Arg-Dab-Thr-^DDab-Ile-Cys-Dab-Dab-Tyr] (HELM PEPTIDE1{V.[Hyp].I.I.Y.[Pen].N.R.[Dab].T.[NCC[C@@H](N[*:1])C(=O)[*:2]].I.C.[Dab].[Dab].Y}$PEPTIDE1,PEPTIDE1,6:R3-13:R3$$$V2.0) | <1 | 0.25 | 0.25 | 0.5
CC[C@H](C)[C@H](NC(=O)[C@@H]1C[C@@H](N)CN1C(=O)[C@@H](N)C(C)C)C(=O)N[C@H](C(=O)N[C@@H](Cc1ccc(O)cc1)C(=O)N[C@@H]1C(=O)N[C@@H](CC(N)=O)C(=O)N[C@@H](CCCNC(=N)N)C(=O)N[C@@H](CCN)C(=O)N[C@@H]([C@@H](C)O)C(=O)N[C@H](CCN)C(=O)N[C@@H](CCCCN)C(=O)N[C@H](C(=O)N[C@@H](CO)C(=O)N[C@@H](CO)C(=O)N[C@@H](Cc2ccc(O)cc2)C(=O)O)CSSC1(C)C)[C@@H](C)O [Example 103, Val-Pro((4R)NH2)-Ile-Thr-Tyr-Pen-Asn-Arg-Dab-Thr-^DDab-Lys-Cys-Ser-Ser-Tyr] (HELM PEPTIDE1{V.[N[C@@H]1C[C@@H](C(=O)[*:2])N([*:1])C1].I.T.Y.[Pen].N.R.[Dab].T.[NCC[C@@H](N[*:1])C(=O)[*:2]].K.C.S.S.Y}$PEPTIDE1,PEPTIDE1,6:R3-13:R3$$$V2.0) | <1 | 0.125 | 0.5 | 0.5
CC[C@H](C)[C@H](NC(=O)[C@@H]1CCCCN1C(=O)[C@@H](N)C(C)C)C(=O)N[C@H](C(=O)N[C@@H](Cc1ccc(O)cc1)C(=O)N[C@@H]1C(=O)N[C@@H](CC(N)=O)C(=O)N[C@@H](CCCNC(=N)N)C(=O)N[C@@H](CCN)C(=O)N[C@@H]([C@@H](C)O)C(=O)N[C@H](CCN)C(=O)N[C@@H](CCCCN)C(=O)N[C@H](C(=O)N[C@@H](CCN)C(=O)N[C@@H](CCCNC(=N)N)C(=O)N[C@@H](Cc2ccc(O)cc2)C(=O)O)CSSC1(C)C)[C@@H](C)O [Example 132, Val-Pic-Ile-Thr-Tyr-Pen-Asn-Arg-Dab-Thr-^DDab-Lys-Cys-Dab-Arg-Tyr] (HELM PEPTIDE1{V.[O=C([C@@H]1CCCCN1[*:1])[*:2]].I.T.Y.[Pen].N.R.[Dab].T.[NCC[C@@H](N[*:1])C(=O)[*:2]].K.C.[Dab].R.Y}$PEPTIDE1,PEPTIDE1,6:R3-13:R3$$$V2.0) | <1 | 0.125 | 0.125 | 0.25
CC[C@H](C)[C@H](NC(=O)[C@@H]1C[C@@H](O)CN1C(=O)[C@@H](N)C(C)C)C(=O)N[C@H](C(=O)N[C@@H](Cc1ccc(O)cc1)C(=O)N[C@@H]1C(=O)N[C@@H](CC(N)=O)C(=O)N[C@@H](CCCNC(=N)N)C(=O)N[C@@H](CCNC(C)C)C(=O)N[C@@H]([C@@H](C)O)C(=O)N[C@H](CCN)C(=O)N[C@@H](CCCCN)C(=O)N[C@H](C(=O)N[C@@H](CCNC(C)C)C(=O)N[C@@H](CCCNC(=N)N)C(=O)N[C@@H](Cc2ccc(O)cc2)C(=O)O)CSSC1(C)C)[C@@H](C)O [Example 135, Hyp-Ile-Thr-Tyr-Pen-Asn-Arg-Dab(iPr)-Thr-^DDab-Lys-Cys-Dab(iPr)-Arg-Tyr] (H-V[Hyp]ITY[Pen]NR[Dab(iPr)]T[dDab]KC[Dab(iPr)]RY-OH; disulfide 6-13) | <1 | 0.25 | 0.25 | 0.5
CC[C@H](C)[C@H](NC(=O)[C@@H]1C[C@@H](O)CN1C(=O)[C@@H](N)C(C)C)C(=O)N[C@H](C(=O)N[C@@H](Cc1ccc(O)cc1)C(=O)N[C@@H]1C(=O)N[C@@H](CC(N)=O)C(=O)N[C@@H](CCCNC(=N)N)C(=O)N[C@@H](CCN)C(=O)N[C@@H](CO)C(=O)N[C@H](CCN)C(=O)N[C@@H](CCCCN)C(=O)N[C@H](C(=O)N[C@@H](CCN)C(=O)N[C@@H](CCN)C(=O)N[C@@H](Cc2ccc(O)cc2)C(=O)O)CSSC1(C)C)[C@@H](C)O [Example 77, Val-Hyp-Ile-Thr-Tyr-Pen-Asn-Arg-Dab-Ser-^DDab-Lys-Cys-Dab-Dab-Tyr] (HELM PEPTIDE1{V.[Hyp].I.T.Y.[Pen].N.R.[Dab].S.[NCC[C@@H](N[*:1])C(=O)[*:2]].K.C.[Dab].[Dab].Y}$PEPTIDE1,PEPTIDE1,6:R3-13:R3$$$V2.0) | <1 | 0.0625 | 0.0625 | 0.125
